Source: patent publication US20050137220A1 (Pharmacia Corporation, priority 2003, published 2005)
“And” between values parts separate entries of the source, which are not always exact repeats. Equal values may be shown once. Where a name gives a salt, the structure may show the parent alone.

What follows are molecules tested against MK-2 (Homo sapiens, UniProt P49137) (assay: Determination of MK-2 IC50 (phosphorylation of HSP-peptide, anion exchange resin capture assay)). Conditions: additional values are replicate IC50 experiments; mixture of stereoisomers implied unless otherwise noted; read-out: MK-2 Avg. IC50.
Chain of MK-2 (P49137 whole entry, species assumed): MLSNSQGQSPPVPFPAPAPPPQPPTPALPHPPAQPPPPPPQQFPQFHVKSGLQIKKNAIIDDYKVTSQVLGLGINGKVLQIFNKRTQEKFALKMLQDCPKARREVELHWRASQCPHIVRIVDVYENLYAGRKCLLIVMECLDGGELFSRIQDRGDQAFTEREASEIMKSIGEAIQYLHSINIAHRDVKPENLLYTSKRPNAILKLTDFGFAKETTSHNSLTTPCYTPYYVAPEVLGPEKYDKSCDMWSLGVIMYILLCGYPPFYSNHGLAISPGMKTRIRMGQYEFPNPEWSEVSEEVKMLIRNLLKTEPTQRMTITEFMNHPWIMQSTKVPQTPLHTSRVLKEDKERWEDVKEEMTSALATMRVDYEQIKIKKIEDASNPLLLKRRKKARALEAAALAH
Format: biochemical
With CCOC(=O)C1c2[nH]c3ccccc3c2CCN1C(=O)c1ccc(OC)o1 (stereo not drawn) [Example 211, 1h-Pyrido[3,4-B]Indole-1-Carboxylic Acid, 2,3,4,9-Tetrahydro-2-[(5-Methoxy-2-Furanyl)Carbonyl]-,Ethyl Ester] the IC50 was over 200 µM. COc1ccc2c3c([nH]c2c1)C(=O)NCC3 [Example 264, 7-methoxy-2,3,4,9-tetrahydro-1H-beta-carbolin-1-one] was tested, and the IC50 was over 200 µM. Work on COc1ccc2[nH]c3c(c2c1)CCC3=NO [Example 132, 7-methoxy-1,4-dihydrocyclopenta[b]indol-3(2H)-one oxime] yielded an IC50 of 104 µM. COC(=O)CC1CC2(C(=O)OC)c3[nH]c4ccccc4c3CCN2C1=O (stereo not drawn) [Example 213, 1h-Indolizino[8,7-B]Indole-2-Acetic Acid, 2,3,5,6,11,11b-(Methoxycarbonyl)-3-Oxo-, Methyl Ester] gave an IC50 of over 200 µM. O=C1NCCc2c1[nH]c1ccccc21 [Example 260, 1H-Pyrido[3,4-b]indol-1-one,2,3,4,9-tetrahydro- or 2,3,4,9-tetrahydro-1H-beta-carbolin-1-one] showed an IC50 of over 200 µM. COc1ccc2[nH]c3c(c2c1)CCN1C(=O)NC(=O)C31 (stereo not drawn) [Example 158, 8-methoxy-5,6,11,11b-tetrahydro-1H-imidazo[1′,5′:1,2]pyrido[3,4-b]indole-1,3(2H)-dione] showed an IC50 of 175 µM. Work on COc1ccc2[nH]c3c(c2c1)C1CCCCC1NC3C(=O)O (stereo not drawn) [Example 191, 10-methoxy-2,3,4,4a,5,6,7,11c-octahydro-1H-indolo[2,3-c]quinoline-6-carboxylic acid] yielded an IC50 of over 200 µM. O=C(O)C1NCCc2c1[nH]c1ccc(OCCCc3ccccc3)cc21 (stereo not drawn) [Example 139, 6-(3-phenylpropoxy)-2,3,49-tetrahydro-1H-beta-carboline-1-carboxylic acid] showed an IC50 of 117 µM. CCOC(=O)C1Cc2c([nH]c3ccc(OC)cc23)C(C(=O)O)N1 (stereo not drawn) [Example 177, 3-(ethoxycarbonyl)-6-methoxy-2,3,4,9-tetrahydro-1H-beta-carboline-1-carboxylic acid] was tested, and the IC50 was over 200 µM. In the case of O=C(O)c1ccc2[nH]c3c(c2c1)CCNC3=O [Example 271, 1-oxo-2,3,4,9-tetrahydro-1H-beta-carboline-6-carboxylic acid], the IC50 is reported as over 200 µM. O=C1NCCc2c1[nH]c1ccc(C#Cc3ccccc3)cc21 [Example 248, 6-(phenylethynyl)-2,3,4,9-tetrahydro-1H-beta-carbolin-1-one] gave an IC50 of over 200 µM. Molecule COc1ccc2[nH]c3c(c2c1)C1(CCCCC1)CNC3C(=O)O (stereo not drawn) [Example 186, 2′,3′,4′,9′-tetrahydro-6′-methoxy-spiro[cyclohexane-1,4′-[4H]pyrido[3,4-b]indole]-1-carboxylic acid] has an IC50 of over 200 µM. COC(=O)c1ccc(COc2ccc3[nH]c4c(c3c2)CCNC4C(=O)O)cc1 (stereo not drawn) [Example 119, 6-{[4-(methoxycarbonyl)benzyl]oxy}-2,3,4,9-tetrahydro-1H-beta-carboline-1-carboxylic acid hydrochloride] gave an IC50 of 71.9 µM. In the case of COC(=O)c1cccc2[nH]c3c(c12)CCNC3C(=O)O (stereo not drawn) [Example 142, 5-(methoxycarbonyl)-2,3,4,9-tetrahydro-1H-beta-carboline-1-carboxylic acid hydrochloride hydrate], the IC50 is reported as 121 µM. For CCOC(=O)c1cccc2c3c([nH]c12)CCNC3=O [Example 96, ethyl 1-oxo-2,3,4,5-tetrahydro-1H-pyrido[4,3-b]indole-6-carboxylate], the IC50 was 34.5 µM. With CN1C(=O)C(=O)c2c(n(C)c3ccccc23)C1=O [Example 263, 1H-Pyrido[3,4-b]indole-1,3,4(2H,9H)-trione, 2,9-dimethyl- or 2,9-dimethyl-1H-beta-carboline-1,3,4(2H,9H)-trione] the IC50 was over 200 µM. In the case of COC(=O)C1(C)NCCc2c1[nH]c1ccccc21 (stereo not drawn) [Example 235, methyl 1-methyl-2,3,4,9-tetrahydro-1H-beta-carboline-1-carboxylate], the IC50 is reported as over 200 µM. COC(=O)C1c2c(c3cc(OC)ccc3n2CO)CCN1C (stereo not drawn) [Example 169, methyl 9-(hydroxymethyl)-6-methoxy-2-methyl-2,3,4,9-tetrahydro-1H-beta-carboline-1-carboxylate] gave an IC50 of over 200 µM. For COc1ccc2[nH]c3c(c2c1)C(Cc1ccc(CO)cc1)CNC3C(=O)O (stereo not drawn) [Example 114, 4-[4-(hydroxymethyl)benzyl]-6-methoxy-2,3,4,9-tetrahydro-1H-beta-carboline-1-carboxylic acid], the IC50 was 61.4 µM. With O=C1NCCc2c1[nH]c1ccc(F)cc21 [Example 261, 1H-Pyrido[3,4-b]indol-1-one,6-fluoro-2,3,4,9-tetrahydro- or 6-fluoro-2,3,4,9-tetrahydro-1H-beta-carbolin-1-one or 1h-Pyrido[3,4-B]Indol-1-One,6-Fluoro-2,3,4,9-Tetrahydro-] the IC50 was over 200 µM. Work on COc1ccc2[nH]c3c(c2c1)CCN1C(=O)CCC31C(=O)O (stereo not drawn) [Example 163, 8-methoxy-3-oxo-2,3,6,11-tetrahydro-1H-indolizino[8,7-b]indole-11b(5H)-carboxylic acid] yielded an IC50 of over 200 µM. CCOC(=O)CCCOc1ccc2[nH]c3c(c2c1)CCNC3C(=O)O (stereo not drawn) [Example 130, 6-(4-ethoxy-4-oxobutoxy)-2,3,4,9-tetrahydro-1H-beta-carboline-1-carboxylic acid hydrochloride] gave an IC50 of 100 µM. In the case of COC(=O)CC1NCCc2c1[nH]c1ccc(OC)cc21 (stereo not drawn) [Example 167, methyl(6-methoxy-2,3,4,9-tetrahydro-1H-beta-carbolin-1-yl)acetate], the IC50 is reported as over 200 µM. COc1ccc2[nH]c3c(c2c1)CCN(C(=O)OCc1ccccc1)C3C(=O)NCC(=O)OCc1ccccc1 (stereo not drawn) [Example 218, 2-[(benzyloxy)carbonyl]-6-methoxy-N-[2-(benzyloxy)-2-oxo]ethyl-2,3,4,9-tetrahydro-1H-beta-carboline-1-carboxamide] showed an IC50 of over 200 µM. For CCOc1cc([N+](=O)[O-])c2[nH]c3c(c2c1)CCNC3=O [Example 255, 6-ethoxy-8-nitro-2,3,4,9-tetrahydro-1H-beta-carbolin-1-one], the IC50 was over 200 µM. In the case of ON=C1CCCc2c1[nH]c1ccc(C(F)(F)F)cc21 [Example 154, 6-(trifluoromethyl)-2,3,4,9-tetrahydro-1H-carbazol-1-one oxime], the IC50 is reported as 156 µM. COc1ccc2[nH]c3c(c2c1)CCNC3CC(=O)O (stereo not drawn) [Example 165, (6-methoxy-2,3,4,9-tetrahydro-1H-beta-carbolin-1-yl)acetic acid hydrochloride] gave an IC50 of over 200 µM. Work on O=C1NCCc2c1[nH]c1ccc([N+](=O)[O-])cc21 [Example 253, 6-nitro-2,3,4,9-tetrahydro-1H-beta-carbolin-1-one] yielded an IC50 of over 200 µM. Work on COc1ccc2[nH]c3c(c2c1)CC(Cc1ccccc1)NC3C(=O)O (stereo not drawn) [Example 193, 3-benzyl-6-methoxy-2,3,4,9-tetrahydro-1H-beta-carboline-1-carboxylic acid] yielded an IC50 of over 200 µM. Work on CCCC1Cc2c([nH]c3ccc(OC)cc23)C(C(=O)O)N1 (stereo not drawn) [Example 190, 6-methoxy-3-propyl-2,3,4,9-tetrahydro-1H-beta-carboline-1-carboxylic acid] yielded an IC50 of over 200 µM. Cc1ccc2[nH]c3c(c2c1)CCC/C3=N\O [Example 123, 6-methyl-2,3,4,9-tetrahydro-1H-carbazol-1-one oxime] was tested, and the IC50 was 82.9 µM and 88.1 µM. CCCC1Cc2c([nH]c3ccc(OC)cc23)C(C(=O)O)N1 (stereo not drawn) [Example 148, 6-methoxy-3-propyl-2,3,4,9-tetrahydro-1H-beta-carboline-1-carboxylic acid] showed an IC50 of 137 µM. In the case of COc1ccc([N+](=O)[O-])c2c3c(n(C)c12)C(=O)NCC3 [Example 259, 8-methoxy-9-methyl-5-nitro-2,3,4,9-tetrahydro-1H-beta-carbolin-1-one], the IC50 is reported as over 200 µM. COc1ccc2[nH]c3c(c2c1)CCNC3(C)C(=O)O (stereo not drawn) [Example 237, 6-methoxy-1-methyl-2,3,4,9-tetrahydro-1H-beta-carboline-1-carboxylic acid hydrochloride] was tested, and the IC50 was over 200 µM. For COC(=O)c1cccc2c3c([nH]c12)CCCC3=O [Example 100, methyl 4-oxo-2,3,4,9-tetrahydro-1H-carbazole-8-carboxylate], the IC50 was 39.8 µM. For COC(=O)C1c2[nH]c3ccc(OC)cc3c2CCN1C(C)=O (stereo not drawn) [Example 232, methyl 2-acetyl-6-methoxy-2,3,4,9-tetrahydro-1H-beta-carboline-1-carboxylate], the IC50 was over 200 µM. In the case of COc1ccc2[nH]c3c(c2c1)CCN1C3C(=O)NC1(C)C (stereo not drawn) [Example 180, 8-methoxy-3,3-dimethyl-2,3,5,6,11,11b-hexahydro-1H-imidazo[1′,5′:1,2]pyrido[3,4-b]indol-1-one], the IC50 is reported as over 200 µM. For COc1ccc2[nH]c3c(c2c1)CCNC3CC#N (stereo not drawn) [Example 231, (6-methoxy-2,3,4,9-tetrahydro-1H-beta-carbolin-1-yl)acetonitrile], the IC50 was over 200 µM. In the case of COc1ccc2[nH]c3c(c2c1)CC(CC#N)NC3=O (stereo not drawn) [Example 116, (6-methoxy-1-oxo-2,3,4,9-tetrahydro-1H-beta-carbolin-3-yl)acetontrile], the IC50 is reported as 68.7 µM. Molecule COc1ccc2[nH]c3c(c2c1)CCN(C(=O)OCc1ccccc1)C3C(=O)O (stereo not drawn) [Example 219, 2-[(benzyloxy)carbonyl]-6-methoxy-2,3,4,9-tetrahydro-1H-beta-carboline-1-carboxylic acid] has an IC50 of over 200 µM. COc1ccc2[nH]c3c(c2c1)CCNC3(CCCC(=O)O)C(=O)O (stereo not drawn) [Example 179, 1-(3-carboxypropyl)-6-methoxy-2,3,4,9-tetrahydro-1H-beta-carboline-1-carboxylic acid] showed an IC50 of over 200 µM. O=C1NCCc2c1[nH]c1ccc(I)cc21 [Example 120, 6-iodo-2,3,4,9-tetrahydro-1H-beta-carbolin-1-one] gave an IC50 of 75.2 µM. In the case of O=C1NCCc2c1[nH]c1cccc(C(=O)O)c21 [Example 250, 1-oxo-2,3,4,9-tetrahydro-1H-beta-carboline-5-carboxylic acid], the IC50 is reported as over 200 µM. For COc1ccc2[nH]c3c(c2c1)CCN1CC(C)NC(=O)C31 (stereo not drawn) [Example 206, 9-methoxy-3-methyl-3,4,6,7,12,12b-hexahydropyrazino[1′, 2′:1 , 2]pyrido[3,4-b]indol-1(2H)-one], the IC50 was over 200 µM. Molecule COc1ccc2[nH]c3c(c2c1)CC(CN(C)C)NC3C(=O)O (stereo not drawn) [Example 187, 3-[(dimethylamino)methyl]-6-methoxy-2,3,4,9-tetrahydro-1H-beta-carboline-1-carboxylic acid trifluoroacetate] has an IC50 of over 200 µM.
